Results reported in the supplement of paper PMC10307832.

Assays:
Experiment in all cases: relative viability (nuclei count vs DMSO), 5 days (fraction); higher = more cells survive
[1] = compound: C1=CC(=CC=C1C2=CC(=C(S2)NC(=O)N)C(=O)N)F [TPCA-1] + Cc1nc(Nc2ncc(C(=O)Nc3c(C)cccc3Cl)s2)cc(N2CCN(CCO)CC2)n1 [Dasatinib] (partner 0.075 µM)
Outline: (§1)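 Five library-drug doses in √10 steps were combined with a fixed anchor-drug dose, or a single drug was given alone, by pin tool to lung cancer cell lines in 1536-well plates the day after seeding. Nuclei were stained and counted after 5 days. Relative viability is the nuclei count in treated wells over that in vehicle wells, taken as the median of duplicate plates.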

[2] = compound: C1=CC(=CC=C1C2=CC(=C(S2)NC(=O)N)C(=O)N)F [TPCA-1] + N=C(N)NC(=N)NCCc1ccccc1 [Phenformin] (partner 250 µM)
Outline: as §1

[3] = compound: C1=CC(=CC=C1C2=CC(=C(S2)NC(=O)N)C(=O)N)F [TPCA-1] + NC(=O)Nc1cc(-c2cccc(F)c2)sc1C(=O)N[C@H]1CCCNC1 [AZD7762] (partner 0.2 µM)
Outline: as §1

[4] = compound: C[C@]12O[C@H](C[C@]1(O)CO)n1c3ccccc3c3c4c(c5c6ccccc6n2c5c31)CNC4=O [Lestaurtinib] + Nc1ncn([C@H]2C[C@H](O)[C@@H](CO)O2)c(=O)n1 [Decitabine] (partner 2 µM)
Outline: as §1

| Cell Line | relative viability ([1]; first compound 0.04 µM) | relative viability ([1]; first compound 0.1265 µM) | relative viability ([1]; first compound 0.4 µM) | relative viability ([1]; first compound 1.265 µM) | relative viability ([1]; first compound 4 µM) | relative viability ([2]; first compound 0.04 µM) | relative viability ([2]; first compound 0.1265 µM) | relative viability ([2]; first compound 0.4 µM) | relative viability ([2]; first compound 1.265 µM) | relative viability ([2]; first compound 4 µM) | relative viability ([3]; first compound 0.04 µM) | relative viability ([3]; first compound 0.1265 µM) | relative viability ([3]; first compound 0.4 µM) | relative viability ([3]; first compound 1.265 µM) | relative viability ([3]; first compound 4 µM) | relative viability ([4]; first compound 0.005 µM) | relative viability ([4]; first compound 0.01581 µM) | relative viability ([4]; first compound 0.05 µM) | relative viability ([4]; first compound 0.1581 µM) | relative viability ([4]; first compound 0.5 µM) |
| --- | --- | --- | --- | --- | --- | --- | --- | --- | --- | --- | --- | --- | --- | --- | --- | --- | --- | --- | --- | --- |
| LXF-289 | 0.24 | 0.225 | 0.267 | 0.134 | 0.104 | 0.551 | 0.489 | 0.532 | 0.447 | 0.308 | 1.1 | 1.09 | 1.1 | 1.07 | 0.774 | 0.312 | 0.428 | 0.374 | 0.364 | 0.315 |
| NCI-H23 | 1.04 | 0.711 | 0.879 | 0.758 | 0.402 | 0.813 | 0.764 | 0.759 | 0.681 | 0.353 | 0.338 | 0.261 | 0.21 | 0.235 | 0.223 | 0.349 | 0.315 | 0.339 | 0.295 | 0.228 |
| NCI-H322M | 0.267 | 0.261 | 0.244 | 0.281 | 0.238 | 0.922 | 0.7 | 0.797 | 0.795 | 0.375 | 0.608 | 0.555 | 0.538 | 0.579 | 0.519 | 0.755 | 0.784 |  | 0.647 | 0.756 |
| NCI-H358 | 0.193 | 0.135 | 0.173 | 0.152 | 0.117 | 0.359 | 0.287 | 0.379 | 0.333 | 0.206 | 0.467 | 0.406 | 0.73 | 0.501 | 0.312 | 0.219 | 0.212 | 0.15 | 0.12 | 0.144 |
| NCI-H441 | 0.882 | 0.559 | 0.688 | 0.245 | 0.274 | 1.15 | 0.688 | 0.934 | 0.703 | 0.283 | 1.21 | 0.915 | 1.19 | 1.04 | 1 | 0.255 | 0.124 | 0.233 | 0.247 | 0.253 |
| NCI-H460 | 0.707 | 0.421 | 0.496 | 0.465 | 0.361 | 0.607 | 0.523 | 0.53 | 0.502 | 0.336 | 0.676 | 0.684 | 0.738 | 0.622 | 0.731 | 0.639 | 0.519 | 0.499 | 0.548 | 0.305 |
| NCI-H522 | 0.993 | 0.833 | 1.11 | 0.844 | 0.788 | 0.67 | 0.611 | 0.504 | 0.776 | 0.621 | 0.898 | 0.904 | 0.857 | 0.853 | 0.894 | 0.683 | 0.71 | 0.811 | 0.652 | 0.537 |
| NCI-H596 | 0.661 | 0.559 | 0.599 | 0.597 | 0.763 | 0.857 | 0.678 | 0.764 | 0.746 | 0.658 | 1.21 | 1.04 | 1.19 | 1.44 | 1.02 | 1.04 | 1.55 | 0.936 | 1.26 | 1.07 |
